Data taken from article PMC8156256, “Use of Half-Generation PAMAM Dendrimers (G0.5–G3.5) with Carboxylate End-Groups to Improve the DACHPtCl2 and 5-FU Efficacy as Anticancer Drugs” (Molecules, 2021).
Read-outs that look alike come from different tables or passages of the source.

Key:
[1] = system: red blood cells; assay: Hemotoxicity (hemolysis) assay, cyanmethemoglobin method; type: cell-based; conditions: human blood; for hemolysis percentage (release of hemoglobin): 3 h, 37 °C, 5 µM
Method: Human blood from healthy donors was collected in tubes containing EDTA and used to evaluate the compounds’ hemotoxicity under testing towards red blood cells by the cyanmethemoglobin method. The total hemoglobin concentration in the original blood was determined starting from a 250-fold dilution of blood in cyanmethemoglobin reagent (the C reagent was prepared in an amber bottle with 50 mg of potassium ferricyanide, 12.5 mg of potassium cyanide, and 35 mg of potassium dihydrogen phosphate in 250 mL of distilled water with 250 µL of Triton-X; its pH was adjusted to 7.4). A standard curve for hemoglobin was then prepared with hemoglobin from bovine blood (Figure S34). Briefly, a stock solution of the protein (1.5 mg/mL) was first prepared in C reagent, from which serial dilutions were performed to obtain standards of known concentration (in the range 0.20 to 1.4 mg/mL). Absorbance was then measured at 550 nm, and the C reagent was used as blank. The total hemoglobin concentration was determined using this standard curve, taking into consideration the initial dilution. For hemotoxicity evaluation of the compounds under testing, a 10% (v/v) blood solution was prepared in PBS (Mg^2+/Ca^2+ free). Then, 10 µL of this blood solution was added to several microtubes containing 70 µL of compound solution (at the concentrations 0.1, 1, and 5 µM); for controls, microtubes with 70 µL of distilled water (positive control) and 70 µL of PBS (negative control) were also prepared. After, the microtubes were incubated at 37 °C for 3 h and subsequently centrifuged at 3800 rpm for 10 min. In the end, 40 µL of each supernatant were transferred to 96-well plates, 160 µL of C reagent was added, and absorbance was measured at 550 nm. The concentration of hemoglobin in the supernatants was then determined using the same standard curve and considering the performed dilutions. The results are presented as a percentage of hemolysis (mean of three independent assays) ± standard deviation (SD). A Perkin Elmer VICTOR^3™ Multilabel Reader spectrophotometer was used in this assay.

[2] = system: A2780CisR cisplatin-resistant ovarian cancer cells; assay: MTT cytotoxicity assay, A2780cisR; type: cell-based, human; conditions: for IC50: MTT, 72 h, for 5-FU loaded systems MW includes the estimated number of 5-FU molecules, read-out: A2780cisR IC50 ± SD; for Resistance Factor (Rf): IC50 A2780CisR / IC50 A2780
Method: (§1) Several human cell lines were used in the cytotoxicity evaluation studies, namely: ovarian cancer cells (A2780), cisplatin-resistant ovarian cancer cells (A2780CisR), breast cancer cells (MCF-7), colorectal adenocarcinoma cells (CACO-2), and fibroblast cells (BJ, a non-cancer cell line). All cell lines were cultured in 96-well plates at a seeding density of 1 × 10^4 cells per well with a specific culture medium supplemented with 10% (v/v) fetal bovine serum (FBS) and 1% (v/v) antibiotic–antimycotic solution (AA, 100× solution) at 37 °C, in a humidified atmosphere and 5% CO2. Specific cell culture media were as follows: the A2780 and A2780CisR cell lines were cultured in RPMI 1640 medium supplemented with L-glutamine (2 mM), and 1% (w/v) of cisplatin (100 mM) in the case of A2780CisR cells (cisplatin was only used in the subculturing process before the cytotoxicity assays); the MCF-7 cell line was cultured in RPMI 1640 medium supplemented with 1 mM sodium pyruvate, 1% (v/v) nonessential amino acids (NEAA, 100× solution), and human insulin 3.3 µg/mL; the CACO-2 cell line was cultured in MEM medium supplemented with 1% (v/v) NEAA; the BJ cell line was cultured in D-MEM medium. After 24 h in culture, cells were incubated with the compounds under testing prepared in nuclease-free water. In all cases, 100 µL of the compound solution was used for a total volume of 200 µL in the well. The metallodendrimers cytotoxicity was evaluated using all the mentioned cell lines at the concentrations of 0.01, 0.03, 0.1, 0.5, 1, 2.5, 5, and 10 µM. Pristine anionic PAMAM dendrimers (G0.5–3.5) were used as controls. The cytotoxicity of the metallodendrimer G2.5COO(DACHPt)16/5-FU was evaluated using A2780CisR, and CACO-2 cells at the concentrations of 0.01, 0.2, 1, 5, 10 and 20 µg/mL, and G2.5(COONa)32/5-FU and free 5-FU were used as controls. After 72 h of incubation with the compounds under testing, the culture medium was replaced by new culture medium containing 10% (v/v) of a MTT (3-(4,5-dimethylthiazol-2-yl)-2,5-diphenyltetrazolium bromide) solution (0.5 mg/mL). After 3 h of incubation, the culture medium was aspirated, and the formed formazan crystals were dissolved in 100 µL of DMSO. Absorbance intensity was measured at 550 nm in a microplate reader (Victor3 1420, Perkin Elmer, Waltham, MA, USA). Three independent experiments with three replicas each were carried out. The concentration that inhibited 50% of the cellular metabolic activity (IC50) was determined by linear interpolation between the two experimental points closer to the point correspondent to 50% of the control’s cellular metabolic activity. Results are presented as the mean ± standard deviation (SD).

[3] = system: CACO-2 colorectal adenocarcinoma cells; assay: MTT cytotoxicity assay, CACO-2; type: cell-based, human; conditions: for 5-FU loaded systems MW includes the estimated number of 5-FU molecules, read-out: CACO-2 IC50 ± SD
Method: All cell lines were cultured in 96-well plates at a seeding density of 1 × 10^4 cells per well with a specific culture medium supplemented with 10% (v/v) fetal bovine serum (FBS) and 1% (v/v) antibiotic–antimycotic solution (AA, 100× solution) at 37 °C, in a humidified atmosphere and 5% CO2. […] After 24 h in culture, cells were incubated with the compounds under testing prepared in nuclease-free water. In all cases, 100 µL of the compound solution was used for a total volume of 200 µL in the well. The metallodendrimers cytotoxicity was evaluated using all the mentioned cell lines at the concentrations of 0.01, 0.03, 0.1, 0.5, 1, 2.5, 5, and 10 µM. Pristine anionic PAMAM dendrimers (G0.5–3.5) were used as controls. The cytotoxicity of the metallodendrimer G2.5COO(DACHPt)16/5-FU was evaluated using A2780CisR, and CACO-2 cells at the concentrations of 0.01, 0.2, 1, 5, 10 and 20 µg/mL, and G2.5(COONa)32/5-FU and free 5-FU were used as controls. After 72 h of incubation with the compounds under testing, the culture medium was replaced by new culture medium containing 10% (v/v) of a MTT (3-(4,5-dimethylthiazol-2-yl)-2,5-diphenyltetrazolium bromide) solution (0.5 mg/mL). After 3 h of incubation, the culture medium was aspirated, and the formed formazan crystals were dissolved in 100 µL of DMSO. […] Three independent experiments with three replicas each were carried out.

[4] = system: A2780 ovarian cancer cells; assay: MTT cytotoxicity assay, A2780; type: cell-based, human; conditions: for IC50: MTT, 72 h, read-out: A2780 IC50 ± SD
Method: as §1

[5] = system: calf thymus DNA (CT-DNA); assay: DNA binding study by UV-vis spectroscopy (Benesi-Hildebrand); conditions: increasing CT-DNA 0-50 µM, 5 mM Tris-HCl/50 mM NaCl pH 7.4, 5 min incubation
Method: The stock solutions of DNA were directly prepared in this buffer. DNA purity was assessed by UV–vis spectroscopy using the absorbance values ratio at 260 nm and 280 nm (it should be between 1.8–1.9 to make sure it is sufficiently protein-free). […] The compounds and the CT-DNA were incubated for 5 min at room temperature. The absorbance was measured in a PerkinElmer UV–vis spectrometer Lambda equipment, using the buffer as blank. […] The intrinsic binding constant, Kb, of the compounds with DNA, was determined using the Benesi–Hildebrand equation [36]: A0/(A−A0) = εG/(εH-G − εG) + εG/(εH-G − εG) × 1/(Kb[DNA]), where Kb is the binding constant, [DNA] is the DNA concentration, A0 and A are the absorbance values of the free compound and compound–DNA complex, and εG and εH-G are their absorption coefficients, respectively. Binding constant values were then obtained from the ratio of the y-intercept to the slope in the plots A0/A−A0 vs. 1/[DNA]. Additionally, the Gibbs free energy (ΔG) associated with the process of DNA binding was calculated using the usual equation: ∆G = −RTlnKb, where T is the temperature in Kelvin and R the gas constant.

[6] = system: BJ fibroblast cells (non-cancer cell line); assay: MTT cytotoxicity assay, BJ; type: cell-based, human; conditions: 72 h, read-out: BJ IC50 ± SD
Method: Several human cell lines were used in the cytotoxicity evaluation studies, namely: ovarian cancer cells (A2780), cisplatin-resistant ovarian cancer cells (A2780CisR), breast cancer cells (MCF-7), colorectal adenocarcinoma cells (CACO-2), and fibroblast cells (BJ, a non-cancer cell line). All cell lines were cultured in 96-well plates at a seeding density of 1 × 10^4 cells per well with a specific culture medium supplemented with 10% (v/v) fetal bovine serum (FBS) and 1% (v/v) antibiotic–antimycotic solution (AA, 100× solution) at 37 °C, in a humidified atmosphere and 5% CO2. […] The metallodendrimers cytotoxicity was evaluated using all the mentioned cell lines at the concentrations of 0.01, 0.03, 0.1, 0.5, 1, 2.5, 5, and 10 µM. […] The cytotoxicity of the metallodendrimer G2.5COO(DACHPt)16/5-FU was evaluated using A2780CisR, and CACO-2 cells at the concentrations of 0.01, 0.2, 1, 5, 10 and 20 µg/mL, and G2.5(COONa)32/5-FU and free 5-FU were used as controls. […] Absorbance intensity was measured at 550 nm in a microplate reader (Victor3 1420, Perkin Elmer, Waltham, MA, USA). […]

[7] = system: MCF-7 breast cancer cells; assay: MTT cytotoxicity assay, MCF-7; type: cell-based, human; conditions: for IC50: MTT, 72 h, read-out: MCF-7 IC50 ± SD
Method: as §1

[8] = IC50 oxaliplatin / IC50 compound

Compound | hemolysis at 3 h ([1]; concentrations 0.1 and 1 µg/mL) | IC50 ([2]; Homo sapiens, A2780cisR) | IC50 ([3]; Homo sapiens, Caco-2, 72 h) | hemolysis percentage (release of hemoglobin) [1] | Resistance Factor (Rf) [2] | IC50 [2] | IC50 [4] | Change in Absorbance [5] | IC50 [6] | IC50 [7] | Selectivity Index (SI) A2780CisR ([2]; IC50 BJ / IC50 A2780CisR) | Relative Potency (RP) A2780CisR [2, 8] | Selectivity Index (SI) A2780 ([4]; IC50 BJ / IC50 A2780) | Relative Potency (RP) A2780 [4, 8] | IC50 ([3]; 72 h) | Selectivity Index (SI) MCF-7 ([7]; IC50 BJ / IC50 MCF-7) | Relative Potency (RP) MCF-7 [7, 8]
O=c1[nH]cc(F)c(=O)[nH]1 [5-FU, 5-fluoro-1H-pyrimidine-2,4-dione] | ~5% | > 154 µM | > 154 µM | – | – | – | – | – | – | – | – | – | – | – | – | – | –
O=C1[O][Pt]2([NH][C@@H]3CCCC[C@H]3[NH]2)[O]C1=O [Oxaliplatin, [(1R,2R)-cyclohexane-1,2-diamine] (ethanedioato-O,O′)platinum(II)] | – | – | – | around 12% | 7.2 | 3.5 ± 0.5 µM | 480 ± 30 nM | Hyperchromism | > 10 µM | > 10 µM | – | – | – | – | – | – | –
trans-(R,R)-1,2-diaminocyclohexanedichloroplatinum(II) [DACHPtCl2] | – | – | – | 7–10% | 6.2 | 1.7 ± 0.4 µM | 300 ± 200 nM | Hyperchromism | > 9 µM | 5 ± 2 µM | >5.2 | 2 | >32 | 1.7 | > 10 µM | >1.7 | >1.9
